The target in the experiment is c-MET (Homo sapiens, UniProt P08581). Put plainly: MET cell mechanistic assay (MKN45), phosphorylated MET ELISA. Format: cell-based. As to conditions: MKN45 cell line; inhibition of phosphorylated MET; 4 hours incubation; at least duplicate experiments; read-out: MET mech IC50. As to the method: The cellular activity of the compounds of the present invention against c-MET may be determined by the following procedure. MKN45 cells were plated in Falcon 3072 96-well plates in growth media (RPMI, 10% FBS, 1% L-glutamine) at a density of 5000 cells/well and incubated at 37° C., 5% CO2 overnight. The following day, one-tenth volume of a 10× concentration of compounds was added to the wells in a 6-point dilution series. The dilutions series was composed of an initial 1:5 dilution in DMSO, followed by a 1:10 dilution in growth media, for a final DMSO concentration on cells of 0.5%. Control wells were treated with 0.5% DMSO. The typical range of dilution was 10 μM to 3 nM. Once compound was added to the cells, plates were incubated for 4 hours at 37° C., 5% CO2. Plates were then washed in PBS, and lysed in triton-based lysis buffer. Lysates were transferred to a precoated capture plate made by Biosource (Cat # KHO0281). The phosphorylated MET levels were measured by incubating with a rabbit polyclonal antibody against phosphorylated MET ([pYpYpY1230/1234/1235]) followed by an anti-rabbit antibody conjugated to HRP. Signal was measured on a Wallac Victor plate reader at 450 nm. The DMSO signal of the control wells was defined as 100% and the percent of inhibition of phosphorylated MET was expressed as percent of control. IC50 values were determined from the percent of control data using a standard four-parameter model.
Sequence of c-MET (P08581 25-1390): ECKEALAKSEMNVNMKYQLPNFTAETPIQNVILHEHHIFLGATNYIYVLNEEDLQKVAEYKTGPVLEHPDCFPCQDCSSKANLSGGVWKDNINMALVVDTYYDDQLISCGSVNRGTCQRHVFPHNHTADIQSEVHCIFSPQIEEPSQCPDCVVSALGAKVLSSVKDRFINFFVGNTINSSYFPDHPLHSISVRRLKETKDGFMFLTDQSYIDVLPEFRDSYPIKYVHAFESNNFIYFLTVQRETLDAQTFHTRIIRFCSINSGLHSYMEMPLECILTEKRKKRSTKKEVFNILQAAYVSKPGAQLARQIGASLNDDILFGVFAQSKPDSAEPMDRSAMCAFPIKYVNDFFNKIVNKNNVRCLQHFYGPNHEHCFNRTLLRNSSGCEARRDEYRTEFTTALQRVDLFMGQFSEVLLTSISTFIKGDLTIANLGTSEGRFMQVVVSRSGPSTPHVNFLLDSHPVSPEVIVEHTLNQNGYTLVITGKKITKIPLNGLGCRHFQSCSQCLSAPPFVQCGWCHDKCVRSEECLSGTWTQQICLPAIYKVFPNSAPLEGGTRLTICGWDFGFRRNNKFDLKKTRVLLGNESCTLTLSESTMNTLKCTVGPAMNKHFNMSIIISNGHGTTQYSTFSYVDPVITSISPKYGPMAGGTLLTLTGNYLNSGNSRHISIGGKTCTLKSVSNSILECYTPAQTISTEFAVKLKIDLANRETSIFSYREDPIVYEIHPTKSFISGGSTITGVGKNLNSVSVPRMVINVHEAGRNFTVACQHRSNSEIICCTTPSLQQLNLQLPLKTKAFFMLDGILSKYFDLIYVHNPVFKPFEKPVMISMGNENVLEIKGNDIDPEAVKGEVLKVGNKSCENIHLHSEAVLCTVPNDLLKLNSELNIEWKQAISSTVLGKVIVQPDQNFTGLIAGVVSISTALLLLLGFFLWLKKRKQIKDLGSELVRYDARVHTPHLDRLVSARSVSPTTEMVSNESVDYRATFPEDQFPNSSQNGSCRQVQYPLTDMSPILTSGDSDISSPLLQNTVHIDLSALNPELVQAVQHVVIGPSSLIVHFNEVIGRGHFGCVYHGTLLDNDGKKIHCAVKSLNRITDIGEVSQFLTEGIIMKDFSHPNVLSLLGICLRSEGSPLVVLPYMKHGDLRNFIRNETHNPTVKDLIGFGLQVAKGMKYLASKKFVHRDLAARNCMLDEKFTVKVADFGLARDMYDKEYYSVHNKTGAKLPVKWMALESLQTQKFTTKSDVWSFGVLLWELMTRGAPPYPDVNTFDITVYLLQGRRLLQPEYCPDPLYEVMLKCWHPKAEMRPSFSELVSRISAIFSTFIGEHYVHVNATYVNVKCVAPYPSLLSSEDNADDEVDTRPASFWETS
The IC50 values of exemplary compounds of the present invention determined in a MET cell mechanistic assay using the MKN45 cell line according to the procedures described herein in at least duplicate experiments are abbreviated as follows and are shown in Table 1: A, IC50≦0.05 μM; B, 0.05 μM<IC50≦0.2 μM; C, 0.2 μM<IC50≦1 μM; D, IC50>1 μM; ND, not determined. The Example # of Table 1 corresponds to the compound example number as illustrated in the Examples section.
Treatment of this cell line with a selective c-MET inhibitor led to induction of apoptosis and inhibition of proliferation, whereas non-MET-amplified cell lines were not affected [Smolen et al., Proc. Natl. Acad. Sci. USA, 103(7):2316-2321 (2006)]. This cell line is thus “driven” by c-MET, and antiproliferative effects correlate very well with the inhibition of c-MET phosphorylation so that the cell proliferation IC50, values can be used as surrogate for the c-MET cell mechanistic IC50, values. Under the assay conditions described herein, the IC50 values correlate nearly 1:1.

Experimental findings from US8445510B2, “Fused bicyclic kinase inhibitors” (OSI Pharmaceuticals, LLC, priority 2011, dated 2013) are described below.

Bounds are passed on as bounds.

For `COc1ccc(F)c(Cl)c1[C@@H](C)c1c[nH]c2ncc(-c3cnn([C@H]4CC[C@H](O)CC4)c3C)cc12` [Example 27, trans-4-(4-{3-[(1S)-1-(2-Chloro-3-fluoro-6-methoxyphenyl)ethyl]-1H-pyrrolo[2,3-b]pyridin-5-yl}-5-methyl-1H-pyrazol-1-yl)cyclohexanol], the IC50 is not above 50 nM.

Consider `Cc1c(-c2cnc3[nH]cc([C@H](C)c4c(OC(F)F)ccc(F)c4Cl)c3c2)cnn1[C@H]1CC[C@H](O)CC1` [Example 74, trans-4-[4-(3-{(1S)-1-[2-Chloro-6-(difluoromethoxy)-3-fluorophenyl]ethyl}-1H-pyrrolo[2,3-b]pyridin-5-yl)-5-methyl-1H-pyrazol-1-yl]cyclohexanol], for which the concentration for half-maximal inhibition (IC50) was not above 50 nM. `Cc1c(-c2cnc3[nH]cc([C@H](C)c4c(OC(F)F)ccc(F)c4Cl)c3c2)cnn1C1CCNCC1` [Example 96, 3-{(1S)-1-[2-Chloro-6-(difluoromethoxy)-3-fluorophenyl]ethyl}-5-[5-methyl-1-(piperidin-4-yl)-1H-pyrazol-4-yl]-1H-pyrrolo[2,3-b]pyridine]: the IC50 is not above 50 nM. Under `CC(=O)N1CCC(n2ncc(-c3cnc4[nH]cc([C@H](C)c5c(OC(F)F)ccc(F)c5Cl)c4c3)c2C)CC1` [Example 97, 1-{4-[4-(3-{(1S)-1-[2-Chloro-6-(difluoromethoxy)-3-fluorophenyl]ethyl}-1H-pyrrolo[2,3-b]pyridin-5-yl)-5-methyl-1H-pyrazol-1-yl]piperidin-1-yl}ethanone] stands not above 50 nM; under `COc1ccc(F)c(Cl)c1[C@@H](C)c1c[nH]c2ncc(-c3cn([C@H]4CC[C@H](O)CC4)nc3OC)cc12` [Example 99, trans-4-(4-{3-[(1S)-1-(2-chloro-3-fluoro-6-methoxyphenyl)ethyl]-1H-pyrrolo[2,3-b]pyridin-5-yl}-3-methoxy-1H-pyrazol-1-yl)cyclohexanol], not above 50 nM; under `COc1nn([C@H]2CC[C@H](O)CC2)cc1-c1cnc2[nH]cc([C@H](C)c3c(OC(F)F)ccc(F)c3Cl)c2c1` [Example 100, trans-4-[4-(3-{(1S)-1-[2-chloro-6-(difluoromethoxy)-3-fluorophenyl]ethyl}-1H-pyrrolo[2,3-b]pyridin-5-yl)-3-methoxy-1H-pyrazol-1-yl]cyclohexanol], not above 50 nM. Take `CCOc1ccc(F)c(Cl)c1[C@@H](C)c1c[nH]c2ncc(-c3cnn([C@H]4CC[C@H](O)CC4)c3C)cc12` [Example 103, trans-4-(4-{3-[(1S)-1-(2-Chloro-6-ethoxy-3-fluorophenyl)ethyl]-1H-pyrrolo[2,3-b]pyridin-5-yl}-5-methyl-1H-pyrazol-1-yl)cyclohexanol]: the IC50 is not above 50 nM. As to `COc1ccc(F)c(Cl)c1[C@@H](CF)c1c[nH]c2ncc(-c3cnn([C@H]4CC[C@H](O)CC4)c3C)cc12` [Example 121, trans-4-(4-{3-[(1S)-1-(2-Chloro-3-fluoro-6-methoxyphenyl)-2-fluoroethyl]-1H-pyrrolo[2,3-b]pyridin-5-yl}-5-methyl-1H-pyrazol-1-yl)cyclohexanol], the 50% inhibitory concentration (IC50) is not above 50 nM. `Cc1c(-c2cnc3[nH]cc([C@@H](CF)c4c(OC(F)F)ccc(F)c4Cl)c3c2)cnn1[C@H]1CC[C@H](O)CC1` [Example 123, trans-4-[4-(3-{(1R)-1-[2-chloro-6-(difluoromethoxy)-3-fluorophenyl]-2-fluoroethyl}-1H-pyrrolo[2,3-b]pyridin-5-yl)-5-methyl-1H-pyrazol-1-yl]cyclohexanol]: the IC50 is 200 to 1000 nM. Consider `Cc1c(-c2cnc3[nH]cc([C@H](CF)c4c(OC(F)F)ccc(F)c4Cl)c3c2)cnn1[C@H]1CC[C@H](O)CC1` [Example 124, trans-4-[4-(3-{(1S)-1-[2-chloro-6-(difluoromethoxy)-3-fluorophenyl]-2-fluoroethyl}-1H-pyrrolo[2,3-b]pyridin-5-yl)-5-methyl-1H-pyrazol-1-yl]cyclohexanol], for which the IC50 is not above 50 nM. Turning to `C[C@H](c1c(OC(F)F)ccc(F)c1Cl)c1c[nH]c2ncc(-c3cnc(N4CCC(O)CC4)n3C)cc12` [Example 125, 1-[5-(3-{(1S)-1-[2-Chloro-6-(difluoromethoxy)-3-fluorophenyl]ethyl}-1H-pyrrolo[2,3-b]pyridin-5-yl)-1-methyl-1H-imidazol-2-yl]piperidin-4-ol], the half-maximal inhibitory concentration (IC50) is not above 50 nM. Regarding `C[C@H](c1c(OC(F)F)ccc(F)c1Cl)c1c[nH]c2ncc(-c3cnc([C@H]4CC[C@H](O)CC4)n3C)cc12` [Example 126, trans-4-[5-(3-{(1S)-1-[2-Chloro-6-(difluoromethoxy)-3-fluorophenyl]ethyl}-1H-pyrrolo[2,3-b]pyridin-5-yl)-1-methyl-1H-imidazol-2-yl]cyclohexanol], the IC50 is not above 50 nM.
